pIC50: −log10 of the molar value.
Assays:
[1] = molecular target: T1, GCN2 (Homo sapiens, UniProt Q9P2K8); experiment: GCN2 enzyme assay (TR-FRET Lanthascreen, phosphorylation of GFP-eIF2alpha); type: biochemical; details: 10 μM ATP, 80 nM GFP-eIF2alpha, 30 nM GCN2, room temperature
In short: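 Two-step TR-FRET (Lanthascreen) format: GCN2 incubated at room temperature with 10 μM ATP and 80 nM GFP-labelled eIF2alpha, then stopped with EDTA. Phospho-eIF2alpha detected by Tb-labelled antibody, excitation 340 nm; activity taken from the 520/495 nm emission ratio.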
Target sequence in this assay (Q9P2K8 whole entry, species assumed): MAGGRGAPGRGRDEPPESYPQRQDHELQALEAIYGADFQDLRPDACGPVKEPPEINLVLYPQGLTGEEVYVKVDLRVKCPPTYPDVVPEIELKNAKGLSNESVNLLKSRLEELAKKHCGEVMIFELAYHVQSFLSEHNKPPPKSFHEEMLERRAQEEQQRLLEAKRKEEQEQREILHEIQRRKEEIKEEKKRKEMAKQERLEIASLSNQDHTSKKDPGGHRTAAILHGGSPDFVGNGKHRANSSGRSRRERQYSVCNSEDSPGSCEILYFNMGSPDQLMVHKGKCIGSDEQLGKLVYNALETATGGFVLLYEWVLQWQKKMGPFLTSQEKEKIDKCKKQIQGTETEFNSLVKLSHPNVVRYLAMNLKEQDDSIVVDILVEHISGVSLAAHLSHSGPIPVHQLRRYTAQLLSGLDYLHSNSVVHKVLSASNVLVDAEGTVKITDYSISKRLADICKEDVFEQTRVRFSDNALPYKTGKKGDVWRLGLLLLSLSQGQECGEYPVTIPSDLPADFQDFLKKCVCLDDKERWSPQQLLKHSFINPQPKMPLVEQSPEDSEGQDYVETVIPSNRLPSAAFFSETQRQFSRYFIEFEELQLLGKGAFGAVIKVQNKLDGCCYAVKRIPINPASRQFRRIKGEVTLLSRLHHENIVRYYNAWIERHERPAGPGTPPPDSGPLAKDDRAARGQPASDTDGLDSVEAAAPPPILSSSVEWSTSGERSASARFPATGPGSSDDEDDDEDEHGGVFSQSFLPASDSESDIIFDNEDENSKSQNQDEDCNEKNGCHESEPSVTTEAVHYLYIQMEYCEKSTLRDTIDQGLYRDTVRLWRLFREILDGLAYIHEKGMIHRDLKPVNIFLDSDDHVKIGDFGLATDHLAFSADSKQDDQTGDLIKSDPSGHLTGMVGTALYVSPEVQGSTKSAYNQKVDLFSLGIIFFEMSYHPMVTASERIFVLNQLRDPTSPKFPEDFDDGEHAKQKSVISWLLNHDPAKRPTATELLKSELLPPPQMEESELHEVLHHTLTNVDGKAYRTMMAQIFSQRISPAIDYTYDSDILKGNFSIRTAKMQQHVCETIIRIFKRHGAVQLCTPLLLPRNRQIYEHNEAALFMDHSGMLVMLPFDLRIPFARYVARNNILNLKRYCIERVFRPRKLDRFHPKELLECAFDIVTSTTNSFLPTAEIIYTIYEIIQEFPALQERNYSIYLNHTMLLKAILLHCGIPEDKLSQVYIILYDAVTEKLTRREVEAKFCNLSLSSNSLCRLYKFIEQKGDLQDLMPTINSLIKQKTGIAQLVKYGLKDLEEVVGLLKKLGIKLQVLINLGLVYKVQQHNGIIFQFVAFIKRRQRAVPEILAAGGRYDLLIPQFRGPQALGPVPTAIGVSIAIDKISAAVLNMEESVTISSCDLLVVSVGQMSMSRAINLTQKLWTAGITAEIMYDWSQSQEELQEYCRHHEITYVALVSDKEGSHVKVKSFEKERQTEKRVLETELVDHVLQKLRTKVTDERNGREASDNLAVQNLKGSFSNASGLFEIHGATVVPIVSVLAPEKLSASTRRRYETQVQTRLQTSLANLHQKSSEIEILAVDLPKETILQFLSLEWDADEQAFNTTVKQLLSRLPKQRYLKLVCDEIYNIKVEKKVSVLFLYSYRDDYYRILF

[2] = molecular target: T1, GCN2; experiment: Cellular assay for GCN2 activity (phospho-eIF2alpha immunocytochemistry, tryptophanol-stimulated U2OS cells); type: cell-based; set-up: endogenous in cells; host or cells: U2OS; details: 2 hours compound, then 600 μM tryptophanol 30 minutes, anti-phospho-eIF2alpha, read-out: IC50 GCN2 (cell assay)
Protocol: Cellular Assay for the Determination of Compound Activities
Human U2OS cells (2000 cells/well) are seeded into 384-well plates and incubated for 20 hours.
The next day, the cells are treated with the test compounds and incubated for 2 hours. Then, tryptophanol, at a final concentration of 600 μM, is added to the cells and those are incubated for 30 minutes.
The analysis of cellular GCN2 activities is done by immunocytochemistry. Briefly, cells are fixated on the well surfaces by formaldehyde and permeabilised with Triton X-100. The primary antibody (anti-phospho-eIF2alpha (Ser51, Cell Signalling Technology, #3398) is incubated on the treated cells for 20 hours, followed by a 60 minutes incubation of the secondary antibody (anti-rabbit-IgG-Alexa 488; Molecular Probes #11008). The analysis and quantification of phosphorylated GCN2 is done by scanning the plates in the Acumen Explorer system (TTPLabtech). The obtained data are normalised against the untreated control wells (DMSO only) and expressed as % effect values. The determination of IC50 values is done by using the Graph Pad Prism software.
Target sequence in this assay (Q9P2K8 whole entry): as the sequence (Q9P2K8 whole entry, species assumed) above

pIC50 [1]	pIC50 [2]	Structure (SMILES)
> 6.52	4.30 to 5.52	CN1CCC(n2cc(Nc3ncc4nnn(-c5ccc6[nH]c(C(F)(F)F)nc6c5)c4n3)cn2)CC1 [Compound A95, [1-(1-methyl-piperidin-4-yl)-1H-pyrazol-4-yl]-[3-(2-trifluoromethyl-1H-benzoimidazol-5-yl)-3H-[1,2,3]triazolo[4,5-d]pyrimidin-5-yl]-amine]
> 6.52	5.52 to 6.52	CCOc1ccc(-n2nnc3cnc(Nc4cnn(CCC5CCNCC5)c4)nc32)cc1 [Compound A97, [3-(4-ethoxy-phenyl)-3H-[1,2,3]triazolo[4,5-d]pyrimidin-5-yl]-[1-(2-piperidin-4-yl-ethyl)-1H-pyrazol-4-yl]-amine]
> 6.52	4.30 to 5.52	CCn1cc(Nc2ncc3nnn(-c4cnn(CC)c4)c3n2)cn1 [Compound A106, (1-ethyl-1H-pyrazol-4-yl)-[3-(1-ethyl-1H-pyrazol-4-yl)-3H-[1,2,3]triazolo[4,5-d]pyrimidin-5-yl]-amine]
> 6.52	4.30 to 5.52	COCCOc1ccc(-n2nnc3cnc(Nc4cnn([C@H]5CC[C@H](O)CC5)c4)nc32)cc1 [Compound A108, 4-(4-{3-[4-(2-methoxy-ethoxy)-phenyl]-3H-[1,2,3]triazolo[4,5-d]pyrimidin-5-ylamino}-pyrazol-1-yl)-cyclohexanol]
> 6.52	4.30 to 5.52	CCOc1ccc(-n2nnc3cnc(Nc4cnn(CCN5CCOCC5)c4)nc32)cc1 [Compound A115, [3-(4-ethoxy-phenyl)-3H-[1,2,3]triazolo[4,5-d]pyrimidin-5-yl]-[1-(2-morpholin-4-yl-ethyl)-1H-pyrazol-4-yl]-amine]
> 6.52	5.52 to 6.52	CC(C)(O)c1ccc(-n2nnc3cnc(Nc4cnn(C5CCOCC5)c4)nc32)cc1 [Compound A119, 2-(4-{5-[1-(tetrahydro-pyran-4-yl)-1H-pyrazol-4-ylamino]-[1,2,3]triazolo[4,5-d]pyrimidin-3-yl}-phenyl)-propan-2-ol]
> 6.52	5.52 to 6.52	Fc1cccc(-n2nnc3cnc(Nc4cnn(C5CCOCC5)c4)nc32)c1 [Compound A122, [3-(3-fluoro-phenyl)-3H-[1,2,3]triazolo[4,5-d]pyrimidin-5-yl]-[1-(tetrahydro-pyran-4-yl)-1H-pyrazol-4-yl]-amine]
> 6.52	4.30 to 5.52	COc1ccc(-n2nnc3cnc(Nc4cnn(CCn5cccn5)c4)nc32)nc1 [Compound A124, [3-(5-methoxy-pyridin-2-yl)-3H-[1,2,3]triazolo[4,5-d]pyrimidin-5-yl]-[1-(2-pyrazol-1-yl-ethyl)-1H-pyrazol-4-yl]-amine]

Second part, the molecule before the results:

Structure (SMILES)	pIC50 [1]	pIC50 [2]
c1nn(C2CCOCC2)cc1Nc1ncc2nnn(-c3ccc4cn[nH]c4c3)c2n1 [Compound A92, [3-(1H-indazol-6-yl)-3H-[1,2,3]triazolo[4,5-d]pyrimidin-5-yl]-[1-(tetrahydro-pyran-4-yl)-1H-pyrazol-4-yl]-amine]	> 6.52	> 6.52
CN1CCC(n2cc(Nc3ncc4nnn(-c5ccc6[nH]ncc6c5)c4n3)cn2)CC1 [Compound A93, [3-(1H-indazol-5-yl)-3H-[1,2,3]triazolo[4,5-d]pyrimidin-5-yl]-[1-(1-methyl-piperidin-4-yl)-1H-pyrazol-4-yl]-amine]	> 6.52	4.30 to 5.52
COCCOc1ccc(-n2nnc3cnc(Nc4cnn(C5CCNC5)c4)nc32)cc1 (stereo not shown) [Compound A96, {3-[4-(2-methoxy-ethoxy)-phenyl]-3H-[1,2,3]triazolo[4,5-d]pyrimidin-5-yl}-(1-pyrrolidin-3-yl-1H-pyrazol-4-yl)-amine]	> 6.52	5.52 to 6.52
COCCOc1ccc(-n2nnc3cnc(Nc4cnn(C5CCN(C(C)=O)C5)c4)nc32)cc1 (stereo not shown) [Compound A99, 1-[3-(4-{3-[4-(2-methoxy-ethoxy)-phenyl]-3H-[1,2,3]triazolo[4,5-d]pyrimidin-5-ylamino}-pyrazol-1-yl)-pyrrolidin-1-yl]-ethanone]	> 6.52	4.30 to 5.52
CCOc1ccc(-n2nnc3cnc(Nc4cnn(CCC5CCN(C(C)=O)CC5)c4)nc32)cc1 [Compound A100, 1-[4-(2-{4-[3-(4-ethoxy-phenyl)-3H-[1,2,3]triazolo[4,5-d]pyrimidin-5-ylamino]-pyrazol-1-yl}-ethyl)-piperidin-1-yl]-ethanone]	> 6.52	4.30 to 5.52
CN1CCC(n2cc(Nc3ncc4nnn(-c5ccc6nccnc6c5)c4n3)cn2)CC1 [Compound A101, [1-(1-methyl-piperidin-4-yl)-1H-pyrazol-4-yl]-(3-quinoxalin-6-yl-3H-[1,2,3]triazolo[4,5-d]pyrimidin-5-yl)-amine]	> 6.52	4.30 to 5.52
O[C@H]1CC[C@H](n2cc(Nc3ncc4nnn(-c5ccc(Cl)c(F)c5)c4n3)cn2)CC1 [Compound A103, 4-{4-[3-(4-chloro-3-fluoro-phenyl)-3H-[1,2,3]triazolo[4,5-d]pyrimidin-5-ylamino]-pyrazol-1-yl}-cyclohexanol]	> 6.52	> 6.52
COCCOc1ccc(-n2nnc3cnc(Nc4cnn([C@H]5CC[C@@H](O)CC5)c4)nc32)cc1 [Compound A107, 4-(4-{3-[4-(2-methoxy-ethoxy)-phenyl]-3H-[1,2,3]triazolo[4,5-d]pyrimidin-5-ylamino}-pyrazol-1-yl)-cyclohexanol]	> 6.52	5.52 to 6.52
CN1CCC(n2cc(Nc3ncc4nnn(-c5ccc(F)c(Cl)c5)c4n3)cn2)CC1 [Compound A111, [3-(3-chloro-4-fluoro-phenyl)-3H-[1,2,3]triazolo[4,5-d]pyrimidin-5-yl]-[1-(1-methyl-piperidin-4-yl)-1H-pyrazol-4-yl]-amine]	5.52 to 6.52	4.30 to 5.52
CCn1cc(Nc2ncc3nnn(-c4ccc(C(=O)OC)cc4)c3n2)cn1 [Compound A117, 4-[5-(1-ethyl-1H-pyrazol-4-ylamino)-[1,2,3]triazolo[4,5-d]pyrimidin-3-yl]-benzoic acid methyl ester]	> 6.52	5.52 to 6.52
CN1CCC(n2cc(Nc3ncc4nnn(-c5cccc(F)c5)c4n3)cn2)CC1 [Compound A118, [3-(3-fluoro-phenyl)-3H-[1,2,3]triazolo[4,5-d]pyrimidin-5-yl]-[1-(1-methyl-piperidin-4-yl)-1H-pyrazol-4-yl]-amine]	> 6.52	5.52 to 6.52
CN1CCC(n2cc(Nc3ncc4nnn(-c5ccc(F)c(F)c5)c4n3)cn2)CC1 [Compound A120, [3-(3,4-difluoro-phenyl)-3H-[1,2,3]triazolo[4,5-d]pyrimidin-5-yl]-[1-(1-methyl-piperidin-4-yl)-1H-pyrazol-4-yl]-amine]	5.52 to 6.52	4.30 to 5.52
CCn1cc(Nc2ncc3nnn(-c4ccc(C(C)(C)O)cc4)c3n2)cn1 [Compound A121, 2-{4-[5-(1-ethyl-1H-pyrazol-4-ylamino)-[1,2,3]triazolo[4,5-d]pyrimidin-3-yl]-phenyl}-propan-2-ol]	> 6.52	5.52 to 6.52
CCOc1ccc(-n2nnc3cnc(Nc4cnn(CCCC5CCNCC5)c4)nc32)cc1 [Compound A125, [3-(4-ethoxy-phenyl)-3H-[1,2,3]triazolo[4,5-d]pyrimidin-5-yl]-[1-(3-piperidin-4-yl-propyl)-1H-pyrazol-4-yl]-amine]	> 6.52	> 6.52
Fc1cccc(-n2nnc3cnc(Nc4cnn(CCn5cccn5)c4)nc32)c1 [Compound A126, [3-(3-fluoro-phenyl)-3H-[1,2,3]triazolo[4,5-d]pyrimidin-5-yl]-[1-(2-pyrazol-1-yl-ethyl)-1H-pyrazol-4-yl]-amine]	> 6.52	4.30 to 5.52
CCn1cc(Nc2ncc3nnn(-c4ccc(C(C)(C)OCCO)cc4)c3n2)cn1 [Compound A127, 2-(1-{4-[5-(1-ethyl-1H-pyrazol-4-ylamino)-[1,2,3]triazolo[4,5-d]pyrimidin-3-yl]-phenyl}-1-methyl-ethoxy)-ethanol]	> 6.52	5.52 to 6.52
CCn1cc(Nc2ncc3nnn(-c4ccc(C(C)(C)F)cc4)c3n2)cn1 [Compound A128, (1-ethyl-1H-pyrazol-4-yl)-{3-[4-(1-fluoro-1-methyl-ethyl)-phenyl]-3H-[1,2,3]triazolo[4,5-d]pyrimidin-5-yl}-amine]	> 6.52	5.52 to 6.52
CC(C)(OCCO)c1ccc(-n2nnc3cnc(Nc4cnn(C5CCOCC5)c4)nc32)cc1 [Compound A130, 2-[1-methyl-1-(4-{5-[1-(tetrahydro-pyran-4-yl)-1H-pyrazol-4-ylamino]-[1,2,3]triazolo[4,5-d]pyrimidin-3-yl}-phenyl)-ethoxy]-ethanol]	> 6.52	5.52 to 6.52
